Test results reported in PubChem BioAssay (NCI).
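Five compound concentrations were applied to cells in 96-well plates for 48 hours; endpoints were derived by simple linear interpolation of the resulting dose-response curve. Abbreviation: GI50, concentration required for 50% inhibition of growth. TGI: concentration producing complete growth inhibition.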

What was measured:
Assay in all cases: NCI anticancer screen, dose series, 48 h
TK-10 renal = system: TK-10 renal
SN12C renal = system: SN12C renal
HS 578T breast = system: HS 578T breast
NCI-H226 lung = system: NCI-H226 lung
OVCAR-4 ovarian = system: OVCAR-4 ovarian
MDA-MB-231 breast = system: MDA-MB-231 breast
OVCAR-8 ovarian = system: OVCAR-8 ovarian
PC-3 prostate = system: PC-3 prostate
NCI-H23 lung = system: NCI-H23 lung
SF-268 CNS = system: SF-268 CNS
K-562 leukemia = system: K-562 leukemia
786-0 renal = system: 786-0 renal
MALME-3M melanoma = system: MALME-3M melanoma
RXF 393 renal = system: RXF 393 renal
NCI-H460 lung = system: NCI-H460 lung
COLO 205 colon = system: COLO 205 colon
EKVX NSCLC = system: EKVX NSCLC
IGROV1 ovarian = system: IGROV1 ovarian
SNB-19 CNS = system: SNB-19 CNS
UACC-257 melanoma = system: UACC-257 melanoma
RPMI-8226 leukemia = system: RPMI-8226 leukemia
BT-549 breast = system: BT-549 breast
KM12 colon = system: KM12 colon
SF-539 CNS = system: SF-539 CNS
MDA-MB-435 = system: MDA-MB-435
T-47D breast = system: T-47D breast
MOLT-4 leukemia = system: MOLT-4 leukemia
SW-620 colon = system: SW-620 colon
M14 melanoma = system: M14 melanoma
ACHN renal = system: ACHN renal
SK-OV-3 ovarian = system: SK-OV-3 ovarian
OVCAR-5 ovarian = system: OVCAR-5 ovarian
SK-MEL-5 melanoma = system: SK-MEL-5 melanoma
NCI/ADR-RES ovarian = system: NCI/ADR-RES ovarian
HCT-15 colon = system: HCT-15 colon
NCI-H522 lung = system: NCI-H522 lung
HT29 colon = system: HT29 colon
MCF7 breast = system: MCF7 breast
HCT-116 colon = system: HCT-116 colon
CAKI-1 renal = system: CAKI-1 renal
HOP-62 NSCLC = system: HOP-62 NSCLC
UACC-62 melanoma = system: UACC-62 melanoma
CCRF-CEM leukemia = system: CCRF-CEM leukemia
HCC-2998 colon = system: HCC-2998 colon
SF-295 CNS = system: SF-295 CNS
DU-145 prostate = system: DU-145 prostate
U251 CNS = system: U251 CNS
SK-MEL-2 melanoma = system: SK-MEL-2 melanoma
HOP-92 NSCLC = system: HOP-92 NSCLC
A549 NSCLC = system: A549 NSCLC
OVCAR-3 ovarian = system: OVCAR-3 ovarian
HL-60(TB) leukemia = system: HL-60(TB) leukemia
SNB-75 CNS = system: SNB-75 CNS
LOX IMVI melanoma = system: LOX IMVI melanoma
UO-31 renal = system: UO-31 renal
SK-MEL-28 melanoma = system: SK-MEL-28 melanoma

CCOC(=O)CCC(NC(=O)c1ccc(Sc2nc3cc(N)cc(N)c3nc2-c2ccccc2)cc1)C(=O)OCC (stereo not drawn)
GI50 (TK-10 renal): 22.4 µM | TGI (TK-10 renal): > 100 µM | GI50 (SN12C renal): 17.7 µM | TGI (SN12C renal): 44.5 µM | GI50 (HS 578T breast): 10.2 µM | TGI (HS 578T breast): > 87.1 µM | GI50 (NCI-H226 lung): 0.97 µM | TGI (NCI-H226 lung): > 65.9 µM | GI50 (OVCAR-4 ovarian): 2.28 µM | TGI (OVCAR-4 ovarian): > 73.2 µM | GI50 (MDA-MB-231 breast): 7.96 µM | TGI (MDA-MB-231 breast): 35.1 µM | GI50 (OVCAR-8 ovarian): 2.78 µM | TGI (OVCAR-8 ovarian): > 63 µM | GI50 (PC-3 prostate): 2.61 µM | TGI (PC-3 prostate): > 100 µM | GI50 (NCI-H23 lung): 2.29 µM | TGI (NCI-H23 lung): > 58 µM | GI50 (SF-268 CNS): 2.18 µM | TGI (SF-268 CNS): > 66.6 µM | TGI (K-562 leukemia): 24.5 µM | GI50 (786-0 renal): 4.72 µM | TGI (786-0 renal): > 100 µM | GI50 (MALME-3M melanoma): 19.6 µM | TGI (MALME-3M melanoma): 37.2 µM | GI50 (RXF 393 renal): 3 µM | TGI (RXF 393 renal): 19.4 µM | GI50 (NCI-H460 lung): 3.05 µM | TGI (NCI-H460 lung): > 100 µM | GI50 (COLO 205 colon): 2.71 µM | GI50 (EKVX NSCLC): 13.7 µM | TGI (EKVX NSCLC): > 77.6 µM | GI50 (IGROV1 ovarian): 6.91 µM | TGI (IGROV1 ovarian): > 100 µM | GI50 (SNB-19 CNS): 4.77 µM | TGI (SNB-19 CNS): > 100 µM | GI50 (UACC-257 melanoma): > 41.4 µM | TGI (UACC-257 melanoma): > 63.6 µM | GI50 (RPMI-8226 leukemia): 1.62 µM | TGI (RPMI-8226 leukemia): > 89.8 µM | GI50 (BT-549 breast): 2.3 µM | TGI (BT-549 breast): 36.9 µM | GI50 (KM12 colon): 2.19 µM | TGI (KM12 colon): > 86.6 µM | GI50 (SF-539 CNS): 0.0926 µM | TGI (SF-539 CNS): 14.7 µM | GI50 (MDA-MB-435): 11.1 µM | TGI (MDA-MB-435): 33.5 µM | GI50 (T-47D breast): > 53.9 µM | TGI (T-47D breast): > 100 µM | GI50 (MOLT-4 leukemia): 0.726 µM | TGI (MOLT-4 leukemia): > 100 µM | GI50 (SW-620 colon): 2.38 µM | TGI (SW-620 colon): > 100 µM | GI50 (M14 melanoma): 3.34 µM | GI50 (ACHN renal): 1.3 µM | TGI (ACHN renal): 33.9 µM | GI50 (SK-OV-3 ovarian): 2.83 µM | TGI (SK-OV-3 ovarian): 53 µM | GI50 (OVCAR-5 ovarian): 60.5 µM | TGI (OVCAR-5 ovarian): > 100 µM | GI50 (SK-MEL-5 melanoma): 1.71 µM | TGI (SK-MEL-5 melanoma): 5.55 µM | GI50 (NCI/ADR-RES ovarian): 21.6 µM | TGI (NCI/ADR-RES ovarian): > 100 µM | GI50 (HCT-15 colon): 1.8 µM | TGI (HCT-15 colon): > 65.6 µM | GI50 (NCI-H522 lung): 2.76 µM | GI50 (HT29 colon): 0.755 µM | TGI (HT29 colon): > 100 µM | GI50 (MCF7 breast): 0.626 µM | TGI (MCF7 breast): > 100 µM | GI50 (HCT-116 colon): 1.3 µM | TGI (HCT-116 colon): > 100 µM | GI50 (CAKI-1 renal): 2.03 µM | TGI (CAKI-1 renal): > 41.6 µM | GI50 (HOP-62 NSCLC): 2.23 µM | TGI (HOP-62 NSCLC): 47.7 µM | GI50 (UACC-62 melanoma): 1.03 µM | TGI (UACC-62 melanoma): > 62.4 µM | GI50 (CCRF-CEM leukemia): 1.31 µM | TGI (CCRF-CEM leukemia): > 100 µM | GI50 (HCC-2998 colon): 4.73 µM | TGI (HCC-2998 colon): 17 µM | GI50 (SF-295 CNS): 0.939 µM | TGI (SF-295 CNS): > 36.8 µM | GI50 (DU-145 prostate): 38.2 µM | TGI (DU-145 prostate): > 100 µM | GI50 (U251 CNS): 1.02 µM | TGI (U251 CNS): > 40.6 µM | GI50 (SK-MEL-2 melanoma): 4.22 µM | TGI (SK-MEL-2 melanoma): 72.4 µM | GI50 (HOP-92 NSCLC): 2.74 µM | TGI (HOP-92 NSCLC): 46.2 µM | GI50 (A549 NSCLC): 2.9 µM | TGI (A549 NSCLC): > 100 µM | GI50 (OVCAR-3 ovarian): 0.73 µM | TGI (OVCAR-3 ovarian): 2.88 µM | GI50 (HL-60(TB) leukemia): 0.298 µM | TGI (HL-60(TB) leukemia): > 100 µM | GI50 (SNB-75 CNS): 32.2 µM | TGI (SNB-75 CNS): 63.8 µM | GI50 (LOX IMVI melanoma): 0.48 µM | TGI (LOX IMVI melanoma): > 29.3 µM | GI50 (UO-31 renal): 4.78 µM | TGI (UO-31 renal): > 100 µM | GI50 (SK-MEL-28 melanoma): 0.884 µM | TGI (SK-MEL-28 melanoma): 32 µM
